Tested on: whole blood
Test: ROTEM whole blood coagulation with rabbit brain-derived tissue thromboplastin (TP) + Ca 12 mM (CTI 20 μg/mL, PKSI-527 40 μM where stated)
Assay type: cell-based
Conditions: for prolongation of blood clotting time with rTM by addition of heparan sulfate: reagents (1)-(4), all conditions, heparan sulfate 1 μg/mL
[1] = Ex15, TP 0.033 μg/mL+Ca+CTI+PKSI-527, heparan sulfate 0.3 μg/mL, no rTM
[2] = Ex15, TP 0.033 μg/mL+Ca+CTI+PKSI-527, heparan sulfate 0.3 μg/mL, rTM 5 nM
[3] = Ex15, TP 0.033 μg/mL+Ca+CTI+PKSI-527, heparan sulfate 0.4 μg/mL, no rTM
[4] = Ex15, TP 0.033 μg/mL+Ca+CTI+PKSI-527, heparan sulfate 0.4 μg/mL, rTM 5 nM
[5] = Ex15, TP 0.033 μg/mL+Ca+CTI+PKSI-527, heparan sulfate 0.5 μg/mL, no rTM
[6] = Ex15, TP 0.033 μg/mL+Ca+CTI+PKSI-527, heparan sulfate 0.5 μg/mL, rTM 5 nM
[7] = Ex17, TP 0.011 μg/mL+Ca+CTI+PKSI-527, heparan sulfate 0.2 μg/mL, no rTM
[8] = Ex17, TP 0.011 μg/mL+Ca+CTI+PKSI-527, heparan sulfate 0.2 μg/mL, rTM 10 nM
[9] = Ex17, TP 0.011 μg/mL+Ca+CTI+PKSI-527, heparan sulfate 0.3 μg/mL, no rTM
[10] = Ex17, TP 0.011 μg/mL+Ca+CTI+PKSI-527, heparan sulfate 0.3 μg/mL, rTM 10 nM
[11] = Ex17, TP 0.011 μg/mL+Ca+CTI+PKSI-527, heparan sulfate 0.5 μg/mL, no rTM
[12] = Ex17, TP 0.011 μg/mL+Ca+CTI+PKSI-527, heparan sulfate 0.5 μg/mL, rTM 10 nM
[13] = Ex18, TP 0.0166 μg/mL+Ca+CTI+PKSI-527, heparan sulfate 0.3 μg/mL, no rTM
[14] = Ex18, TP 0.0166 μg/mL+Ca+CTI+PKSI-527, heparan sulfate 0.3 μg/mL, rTM 10 nM
[15] = Ex18, TP 0.0166 μg/mL+Ca+CTI+PKSI-527, heparan sulfate 0.5 μg/mL, no rTM
[16] = Ex18, TP 0.0166 μg/mL+Ca+CTI+PKSI-527, heparan sulfate 0.5 μg/mL, rTM 10 nM
[17] = Ex18, TP 0.0166 μg/mL+Ca+CTI+PKSI-527, heparan sulfate 1.0 μg/mL, no rTM
[18] = Ex18, TP 0.0166 μg/mL+Ca+CTI+PKSI-527, heparan sulfate 1.0 μg/mL, rTM 10 nM

Heparan sulfate
CT (clotting time) (Ex15, TP 0.033 μg/mL+Ca+CTI+PKSI-527, heparan sulfate 0.2 μg/mL, rTM 5 nM): 749 s
CFT (clot formation time) [1]: 171 s
CT (clotting time) [1]: 688 s
CFT (clot formation time) [2]: 251 s
CT (clotting time) [2]: 825 s
CFT (clot formation time) [3]: 206 s
CT (clotting time) [3]: 762 s
CFT (clot formation time) [4]: 334 s
CT (clotting time) [4]: 955 s
CFT (clot formation time) [5]: 248 s
CT (clotting time) [5]: 837 s
CFT (clot formation time) [6]: 407 s
CT (clotting time) [6]: 995 s
blood clotting time (Ex17, TP 0.011 μg/mL+Ca+CTI+PKSI-527, heparan sulfate 0.2 μg/mL or more, rTM 10 nM): ≥ 1 h
CFT (clot formation time) [7]: 578 s
CT (clotting time) [7]: 1408 s
CFT (clot formation time) [8]: No CFT
CT (clotting time) [8]: No CT
CFT (clot formation time) [9]: 430 s
CT (clotting time) [9]: 1630 s
CFT (clot formation time) [10]: No CFT
CT (clotting time) [10]: No CT
CFT (clot formation time) [11]: 386 s
CT (clotting time) [11]: 1178 s
CFT (clot formation time) [12]: No CFT
CT (clotting time) [12]: No CT
CFT (clot formation time) [13]: 256 s
CT (clotting time) [13]: 1035 s
CFT (clot formation time) [14]: 292.0 s
CT (clotting time) [14]: 904 s
CFT (clot formation time) [15]: 407 s
CT (clotting time) [15]: 1162 s
CFT (clot formation time) [16]: 742.0 s
CT (clotting time) [16]: 1064 s
CFT (clot formation time) [17]: No CT
CT (clotting time) [17]: 1999 s
CFT (clot formation time) [18]: No CFT
CT (clotting time) [18]: No CT
blood clotting time [18]: ≥ 1 h
CT (clotting time) (Ex30, reagent (1): TP 0.664 μg/mL+heparan sulfate 1 μg/mL+Ca, no rTM): 220 s
CT (clotting time) (Ex30, reagent (1): TP 0.664 μg/mL+heparan sulfate 1 μg/mL+Ca, rTM 25 nM): 533 s
CT (clotting time) (Ex30, reagent (1): TP 0.664 μg/mL+heparan sulfate 1 μg/mL+Ca, rTM 25 nM+APC inhibitory aptamer 1 μM): 260 s
CT (clotting time) (Ex30, reagent (2): TP 0.664 μg/mL+heparan sulfate 1 μg/mL+Ca+CTI, no rTM): 214 s
CT (clotting time) (Ex30, reagent (2): TP 0.664 μg/mL+heparan sulfate 1 μg/mL+Ca+CTI, rTM 25 nM): 448 s
CT (clotting time) (Ex30, reagent (2): TP 0.664 μg/mL+heparan sulfate 1 μg/mL+Ca+CTI, rTM 25 nM+APC inhibitory aptamer 1 μM): 287 s
CT (clotting time) (Ex30, reagent (3): TP 0.664 μg/mL+heparan sulfate 1 μg/mL+Ca+PKSI-527, no rTM): 220 s
CT (clotting time) (Ex30, reagent (3): TP 0.664 μg/mL+heparan sulfate 1 μg/mL+Ca+PKSI-527, rTM 25 nM): 444 s
CT (clotting time) (Ex30, reagent (3): TP 0.664 μg/mL+heparan sulfate 1 μg/mL+Ca+PKSI-527, rTM 25 nM+APC inhibitory aptamer 1 μM): 291 s
CT (clotting time) (Ex30, reagent (4): TP 0.664 μg/mL+heparan sulfate 1 μg/mL+Ca+CTI+PKSI-527, no rTM): 226 s
CT (clotting time) (Ex30, reagent (4): TP 0.664 μg/mL+heparan sulfate 1 μg/mL+Ca+CTI+PKSI-527, rTM 25 nM): 440 s
CT (clotting time) (Ex30, reagent (4): TP 0.664 μg/mL+heparan sulfate 1 μg/mL+Ca+CTI+PKSI-527, rTM 25 nM+APC inhibitory aptamer 1 μM): 319 s
prolongation of blood clotting time with rTM by addition of heparan sulfate (Ex30, rTM 25 nM): markedly prolonged
CT (clotting time) (Ex31, reagent (1): TP 0.664 μg/mL+heparan sulfate 1 μg/mL+Ca, no rTM): 220 s
CT (clotting time) (Ex31, reagent (1): TP 0.664 μg/mL+heparan sulfate 1 μg/mL+Ca, rTM 30 nM): 766 s
CT (clotting time) (Ex31, reagent (1): TP 0.664 μg/mL+heparan sulfate 1 μg/mL+Ca, rTM 30 nM+APC inhibitory aptamer 1 μM): 301 s
CT (clotting time) (Ex31, reagent (2): TP 0.664 μg/mL+heparan sulfate 1 μg/mL+Ca+CTI, no rTM): 214 s
CT (clotting time) (Ex31, reagent (2): TP 0.664 μg/mL+heparan sulfate 1 μg/mL+Ca+CTI, rTM 30 nM): 613 s
CT (clotting time) (Ex31, reagent (2): TP 0.664 μg/mL+heparan sulfate 1 μg/mL+Ca+CTI, rTM 30 nM+APC inhibitory aptamer 1 μM): 286 s
CT (clotting time) (Ex31, reagent (3): TP 0.664 μg/mL+heparan sulfate 1 μg/mL+Ca+PKSI-527, no rTM): 220 s
CT (clotting time) (Ex31, reagent (3): TP 0.664 μg/mL+heparan sulfate 1 μg/mL+Ca+PKSI-527, rTM 30 nM): 517 s
CT (clotting time) (Ex31, reagent (3): TP 0.664 μg/mL+heparan sulfate 1 μg/mL+Ca+PKSI-527, rTM 30 nM+APC inhibitory aptamer 1 μM): 297 s
CT (clotting time) (Ex31, reagent (4): TP 0.664 μg/mL+heparan sulfate 1 μg/mL+Ca+CTI+PKSI-527, no rTM): 226 s
CT (clotting time) (Ex31, reagent (4): TP 0.664 μg/mL+heparan sulfate 1 μg/mL+Ca+CTI+PKSI-527, rTM 30 nM): 557 s
CT (clotting time) (Ex31, reagent (4): TP 0.664 μg/mL+heparan sulfate 1 μg/mL+Ca+CTI+PKSI-527, rTM 30 nM+APC inhibitory aptamer 1 μM): 307 s
prolongation of blood clotting time with rTM by addition of heparan sulfate (Ex31, rTM 30 nM): markedly prolonged
